Assay results taken from publication PMC10762078, “Role of UPF1-LIN28A interaction during early differentiation of pluripotent stem cells” (Nature Communications, 2024).
Ends that are not written are not given here.

Tests used:
[1] = target: T1, His-LIN28A (Homo sapiens, UniProt Q9H9Z2); experiment: SPR analyte-ligand binding screening of eight peptides (P1-P8); conditions: SPR screening at 15 μM, 3 min association, 6 min dissociation
T1 construct: purchased LS-bio LS-G637
T1 sequence (Q9H9Z2 1-209): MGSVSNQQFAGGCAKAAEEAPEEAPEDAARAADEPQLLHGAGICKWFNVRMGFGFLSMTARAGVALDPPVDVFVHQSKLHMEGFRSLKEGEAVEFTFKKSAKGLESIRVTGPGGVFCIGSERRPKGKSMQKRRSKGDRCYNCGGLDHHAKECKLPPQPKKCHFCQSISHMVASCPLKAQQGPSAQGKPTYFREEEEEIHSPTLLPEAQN
Protocol: For ligand immobilisation, the nitrilotriacetic acid (NTA) surface gold sensor chip (icluebio) was activated with 5 mM NiCl2 (Xantec) at a flow rate of 30 μL/min, following equalisation with 1× HBS-T buffer. His-LIN28A (LS-bio, LS-G637) was used as a ligand protein and was applied to a sensor chip at a flow rate of 10 μL/min for 40 min after dilution in 1× HEPES-buffered saline (HBS-T) buffer at a 1/20 ratio. Approximately 1000 resonance units (RU) were bonded to the sensor chip after ligand immobilisation. RU was measured using iMSPR-ProX (icluebio). An indigenous NTA sensor chip was used as a reference channel.
Analyte-ligand binding screening was performed by tethering the ligand and reference channels in the connected mode. […] After equalisation with 1× HBS-T buffer, the sensor chip was treated with each peptide for 3 min and then for 6 min with 1× HBS-T buffer for peptide dissociation.

[2] = test system: CHA15 cells transcriptome / NMD targets; experiment: RNA-seq of CPP-peptide-treated CHA15 cells (NMD targets, SDGs; Fig. 6a, b, d; Supplementary Fig. 6a; Supplementary Data 2); assay type: cell-based, Homo sapiens; conditions: CHA15, P2 vs P1 plot (Fig. 6d)
Protocol: For CPP-conjugated peptide delivery, HeLa, 293T, and PA-1 cells were incubated with CPP-conjugated peptides or CPP-FITC at 2 μM in DMEM with 10% FBS for 12 h a day before cell harvest. hPSCs were treated with CPP-conjugated peptides at 10 μM in mTeSR Plus Medium, […] The ROCK inhibitor (Tocris Bioscience, Y-27632) treated-hPSCs were dissociated into single cells using Accutase (Merck, SCR005) and differentiated into ectoderm, mesoderm, and endoderm using the STEMdiff Trilineage Differentiation Kit ([…] Technologies, 05230) following the manufacturer’s protocol. Differentiated cells treated with CPP-conjugated peptides were analysed at 0, 3, and 5 days for ectoderm and endoderm, and at 0, 3, and 4 days for mesoderm.
Total RNA concentration was calculated using Quant-IT RiboGreen (Invitrogen, R11490). To assess the integrity of the total RNA, samples were run on a TapeStation RNA screentape (Agilent). Only high-quality RNA preparations with RNA integrity number greater than 7.0 were used for the RNA library construction. A library was independently prepared with 1 μg of total RNA from each sample using the Illumina TruSeq Stranded mRNA Sample Prep Kit (Illumina, 20020594). The first step in the workflow involves purifying poly‐A-containing mRNA molecules using poly‐T‐attached magnetic beads. Following purification, mRNA was fragmented into small pieces using divalent cations at elevated temperatures. The cleaved RNA fragments were copied into first-strand cDNA using SuperScript II reverse transcriptase (Invitrogen, 18064022) and random primers. This was followed by second-strand cDNA synthesis using DNA polymerase I, RNase H, and dUTP. These cDNA fragments underwent an end repair process, adding a single ‘A’ base and ligating the adapters. The products were purified and enriched via PCR to create the final cDNA library. The libraries were quantified using the KAPA Library Quantification Kits for Illumina Sequencing platforms according to the qPCR Quantification Protocol Guide (KAPA BIOSYSTEMS, KR0405) and qualified using the TapeStation D1000 ScreenTape (Agilent). Indexed libraries were then submitted to an Illumina NovaSeq (Illumina), and Macrogen Inc. performed paired-end (2 × 100 bp) sequencing.
We pre-processed the raw reads from the sequencer to remove low-quality reads and adapter sequences before analysis and aligned the processed reads to Homo sapiens (GRCh37) using HISAT v2.1.0[52]. HISAT utilises two indices for alignment (a global whole-genome index and tens of thousands of small local indexes). These two types of indices are constructed using the same Burrows-Wheeler transform (BWT)/graph FM index (GFM) as Bowtie2. The reference genome sequence of Homo sapiens (GRCh37) and the annotation data were downloaded from the NCBI database. Transcript assembly was processed using StringTie v1.3.4d[53],[54]. […] Differentially expressed genes (DEGs) were analysed by ratio of FPKM or using DESeq2 with read counts. Log2 fold-change value of the NMD targets[25],[32], three germ layer markers, miRNA targets, or SDGs was converted into cumulative frequency curve using the R function, ‘ecdf’ (version 4.0.5). Gene functional classification and Gene ontology (GO) were performed using g:Profiler[56].

[3] = test system: let-7a, let-7g, miR-16-5p and their targets in CHA15 cells; experiment: RT-qPCR of mature LIN28A-regulated miRNAs and CDF of let-7-5p / miR-16-5p target mRNAs (Supplementary Fig. 6f); assay type: cell-based, human; conditions: Fig. s6f, cumulative curves; P2/P1; Asymptotic two-sample Kolmogorov-Smirnov test, two-sided
Protocol: cDNA was synthesised using RevertAid Reverse Transcriptase (Thermo Fisher Scientific, EP0441) with synthesised random hexamer (Macrogen) for total RNA or stem-loop primers for miRNA. For RT-qPCR reactions, the SensiFAST SYBR No-ROX kit (Meridian Bioscience) was used according to the manufacturer’s protocol. All data analysis and visualisation were conducted using R 3.6.1 [www.r-project.org] or GraphPad Prism 10. RT primers for miRNA and RT-qPCR primer sequences are provided in Supplementary Data 6.
Genes regulated by miRNA let-7-5p and miR-16-5p were determined by TargetScanHuman. Among miRNA targets sorted by cumulative weighted context++ score (CWCS)[57], the 100 top genes were selected and analysed using CDF. […]
Scatter
(bottom panel), respectively. f Levels of m ature endogenous m iRNAs in CHA15 cells, which were regulated by LIN28A, were assessed using RT -qPCR. Cum ulative f raction of log2 fold change in the expression of genes regulated by let-7-5p and m iR-16- 5p was shown as CDF graphs. T he relative level of m RNA was norm alised to that of U6 snRNA in (c, d, and f). K–S tests were used for e and f. Unpaired Student’s t-test was used for c , d, and f . * p < 0.05, ** p < 0.01, *** p < 0.001. Exact p -values were provided in Source data. Data are presented as m ean values ± SEM. All statistical test used were two- sided. T he m inim um num ber of independent biological replicate experim ents was a and e n = 2, b–d and f n = 3. T he experim ents were conducted three tim es, each iteration producing consistent results.

[4] = test system: HeLa, PA-1 and CHA15 cells; experiment: Cell-penetrating efficiency of CPP-FITC by confocal microscopy; assay type: cell-based; conditions: PA-1, CHA15
Protocol: For CPP-conjugated peptide delivery, HeLa, 293T, and PA-1 cells were incubated with CPP-conjugated peptides or CPP-FITC at 2 μM in DMEM with 10% FBS for 12 h a day before cell harvest. hPSCs were treated with CPP-conjugated peptides at 10 μM in mTeSR Plus Medium, and the peptide-containing medium was changed every day over 10 days. The ROCK inhibitor (Tocris Bioscience, Y-27632) treated-hPSCs were dissociated into single cells using Accutase (Merck, SCR005) and differentiated into ectoderm, mesoderm, and endoderm using the STEMdiff Trilineage Differentiation Kit ([…] Technologies, 05230) following the manufacturer’s protocol. Differentiated cells treated with CPP-conjugated peptides were analysed at 0, 3, and 5 days for ectoderm and endoderm, and at 0, 3, and 4 days for mesoderm.
Immunofluorescence staining, proximity ligation assay imaging, and cell-penetrating efficiency of CPP-FITC were imaged with a confocal laser scanning microscope (Leica, TSC SP5) or immunofluorescence microscope (Leica, DM5000B). Z-stacks were captured, with sections spanning the entire cell. The LAS X Life Science program was used to obtain the maximum intensity projections and cross-sections of the confocal images.
DAPI FITC Merge DAPI FITC Merge CHA15 H9 Pro2 H9
No peptide CPP-FITC Calnexin
For 2-day treatm ent For 4-day treatm ent […]
Supplementary Fig. 5 a HeLa, PA- 1, and CHA15 wer e treated with CPP-FITC. […]

[5] = target: T2, His-LIN28A (UniProt Q9H9Z2 1-209); experiment: SPR
T2 chain: T1 sequence (Q9H9Z2 1-209)

[6] = target: T2, His-LIN28A; experiment: SPR

## N-STSFDRMQSALKTFAVD-C [P4, peptide derived from the UPF1 (419–700) domain]
[1]
  binding affinity vs others: slightly

## KKKWCRKKKMPELQKLQQLKDE [CPP-P2, CPP conjugated to P2; negative control, reference compound]
[2]
  ACADL expression (dot plot): -0.6893
  AOC1 expression (dot plot): -1.502
  BLOC1S5-TXNDC5 expression (dot plot): -0.1425
  TRIM39-RPP21 expression (dot plot): 0.7164
[3]
  let-7-5p targets, log2FC cumulative curve: Kolmogorov-Smirnov D: 0.07965
  miR-16-5p targets, log2FC cumulative curve: Kolmogorov-Smirnov D: 0.2271

## CPP-FITC: CPP conjugated to FITC, used to evaluate cell-penetrating ability in cells (KKKWCRKKK; also: FITC conjugate)
[4]
  intracellular distribution: distribution of CPP-FITC in the cytoplasm

## SSADEKRYRALKRTAERELLMNA [P8]
[5]
  Kd: 5.2 µM
[6]
  koff: 0.0137 s⁻¹
